According to patent publication US9072759B2 (priority 2008, dated 2015):
≈ marks a conversion by molar mass, not a printed value. Like-named read-outs stand apart in the source and are kept apart here.

Assays:
[1] = test system: L. monocytogenes strain EGD; assay: microbe, parasite or virus in culture; assay type: cell-based; details: Listeria monocytogenes
[2] = test system: L. pneumophila strain ATCC 33153; assay: microbe, parasite or virus in culture; assay type: cell-based; details: Legionella pneumophila
B. anthracis [3] = assay: microbe, parasite or virus in culture; assay type: cell-based
Y. pestis = assay: microbe, parasite or virus in culture; assay type: cell-based
F. tularensis = assay: microbe, parasite or virus in culture; assay type: cell-based
B. mallei = assay: microbe, parasite or virus in culture; assay type: cell-based
B. pseudomallei = assay: microbe, parasite or virus in culture; assay type: cell-based
in vivo [4] = details: rat
in vivo [5] = details: monkey
in vivo [6] = details: rodents and non human primates
clinical = details: in vivo
[7] = in vivo
B. anthracis [8] = details: approved or proposed for post-exposure anthrax indications; cited from earlier work
[9] = read-out: MIC, L. monocytogenes
[10] = ATCC33153, pH 6.5, read-out: MIC, L. pneumophila, pH-adjusted broth
[11] = ATCC33153, pH 7.4, read-out: MIC, L. pneumophila, pH-adjusted broth
[12] = ATCC33153, read-out: MIC, L. pneumophila

**Q.** Which results are given for `CC[C@H]1OC(=O)[C@H](C)[C@@H](O[C@H]2C[C@@](C)(OC)[C@@H](O)[C@H](C)O2)[C@H](C)[C@@H](O[C@@H]2O[C@H](C)C[C@H](N(C)C)[C@H]2O)[C@](C)(O)C[C@@H](C)CN(C)[C@H](C)[C@@H](O)[C@]1(C)O` [AZI, Azithromycin]?
**A.** MIC [1]: 1 µg/mL (≈ 1.34 µM); MIC [1, 9]: 1 µg/mL (≈ 1.34 µM); MIC ([2]; ATCC33153): 0.016 µg/mL (≈ 0.0214 µM); MIC [2, 10]: 0.25 µg/mL (≈ 0.334 µM); MIC [2, 11]: ~0.01 µg/mL (≈ 0.0134 µM); MIC [2, 12]: 0.016 µg/mL (≈ 0.0214 µM)

**Q.** For `CC[C@H]1OC(=O)[C@@](C)(F)C(=O)[C@H](C)[C@@H](OC2OC(C)CC(N(C)C)C2O)[C@@](C)(OC)C[C@@H](C)C(=O)[C@H](C)[C@H]2N(CCCCn3cc(-c4cccc(N)c4)nn3)C(=O)O[C@]12C` (some centres unmarked) [CEM-101, 11-N-4-(3-aminophenyl)-[1,2,3]triazol-1-yl]-butyl}-5-desosaminyl-3-oxo-2-fluoro-erythronolide A,-11,12-cyclic carbamate], which “MIC Range” value (B. anthracis [3]; B. anthracis, 30 strains) is on record?
**A.** The value was <0.008 to 0.015 µg/mL.

**Q.** And the MIC50 (B. anthracis [3]; Bacillus anthracis)?
**A.** The MIC50 was < 0.008 µg/mL.

**Q.** What about the MIC90 (B. anthracis [3]; Bacillus anthracis) of the same compound?
**A.** Its MIC90 is < 0.008 µg/mL.

**Q.** And the “MIC Range” value (Y. pestis; Y. pestis, 30 strains)?
**A.** The value was 0.25 to 2 µg/mL.

**Q.** And the MIC50 (Y. pestis; Yersinia pestis)?
**A.** The MIC50 was 1 µg/mL (≈ 1.18 µM).

**Q.** And the MIC90 (Y. pestis; Yersinia pestis)?
**A.** The MIC90 was 2 µg/mL (≈ 2.37 µM).

**Q.** What about the “MIC Range” value (F. tularensis; F. tularensis, 30 strains) of the same compound?
**A.** Its value is <0.08 to 4 µg/mL.

**Q.** What about the MIC50 (F. tularensis; Francisella tularensis) of the same compound?
**A.** Its MIC50 is 0.03 µg/mL (≈ 0.0355 µM).

**Q.** What about the MIC90 (F. tularensis; Francisella tularensis) of the same compound?
**A.** Its MIC90 is 2 µg/mL (≈ 2.37 µM).

**Q.** What about the “MIC Range” value (B. mallei; B. mallei, 30 strains) of the same compound?
**A.** Its value is 0.25 to 2 µg/mL.

**Q.** And the MIC50 (B. mallei; Burkholderia mallei)?
**A.** The MIC50 was 1 µg/mL (≈ 1.18 µM).

**Q.** And the MIC90 (B. mallei; Burkholderia mallei)?
**A.** Its MIC90 is 1 µg/mL (≈ 1.18 µM).

**Q.** And the “MIC Range” value (B. pseudomallei; B. pseudomallei, 30 strains)?
**A.** The value was 16 µg/mL (≈ 18.9 µM).

**Q.** And the MIC50 (B. pseudomallei; Burkholderia pseudomallei)?
**A.** Its MIC50 is 16 µg/mL (≈ 18.9 µM).

**Q.** What about the MIC90 (B. pseudomallei; Burkholderia pseudomallei) of the same compound?
**A.** Its MIC90 is 16 µg/mL (≈ 18.9 µM).

**Q.** And the MIC [1]?
**A.** The MIC was 0.004 µg/mL (≈ 0.00473 µM).

**Q.** And the MIC ([1]; pH 7.4, read-out: MIC, L. monocytogenes (EDG), pH-adjusted broth)?
**A.** Its MIC is 0.0039 µg/mL (≈ 0.00462 µM).

**Q.** What about the MIC [1, 9] of the same compound?
**A.** The MIC was 0.004 µg/mL (≈ 0.00473 µM).

**Q.** And the MIC ([2]; ATCC33153)?
**A.** The MIC was 0.004 µg/mL (≈ 0.00473 µM).

**Q.** What about the MIC [2, 10] of the same compound?
**A.** The MIC was 0.01 µg/mL (≈ 0.0118 µM).

**Q.** What about the MIC [2, 11] of the same compound?
**A.** Its MIC is 0.005 µg/mL (≈ 0.00592 µM).

**Q.** What about the MIC [2, 12] of the same compound?
**A.** The MIC was 0.004 µg/mL (≈ 0.00473 µM).

**Q.** What about the Kp (in vivo [4]) of the same compound?
**A.** The Kp was 5.

**Q.** What about the Kp (in vivo [5]) of the same compound?
**A.** The Kp was 54.

**Q.** And the Kp (in vivo [6])?
**A.** Its Kp is 17 to 100.

**Q.** What about the AUC (clinical) of the same compound?
**A.** The AUC was 40 to 28600 ng·h/mL.

**Q.** What about the Cmax (clinical) of the same compound?
**A.** The Cmax was 22 to 1960 ng/mL.

**Q.** What about the Tmax (clinical) of the same compound?
**A.** Its Tmax is 1.5 to 6 h.

**Q.** What about the half-life (clinical) of the same compound?
**A.** Its half-life is 2.2 to 7.9 h.

**Q.** For `CC[C@H]1OC(=O)[C@H](C)[C@@H](O[C@H]2C[C@@](C)(OC)[C@@H](O)[C@H](C)O2)[C@H](C)[C@@H](O[C@@H]2O[C@H](C)C[C@H](N(C)C)[C@H]2O)[C@](C)(OC)C[C@@H](C)C(=O)[C@H](C)[C@@H](O)[C@]1(C)O` [CLR, Clarithromycin], which MIC ([2]; ATCC33153) is on record?
**A.** The MIC was 0.007 µg/mL (≈ 0.00936 µM).

**Q.** And the “bioload when the time after the last dose was extended” value [7]?
**A.** The value was “bioload increases”.

**Q.** For `CC[C@H]1OC(=O)[C@H](C)C(=O)[C@H](C)[C@@H](O[C@@H]2O[C@H](C)C[C@H](N(C)C)[C@H]2O)[C@](C)(OC)C[C@@H](C)C(=O)[C@H](C)[C@H]2N(CCCCn3cnc(-c4cccnc4)c3)C(=O)O[C@]12C` [TEL, Telithromycin], which MIC ([2]; ATCC33153) is on record?
**A.** Its MIC is 0.007 µg/mL (≈ 0.00862 µM).

**Q.** And the “bioload when the time after the last dose was extended” value [7]?
**A.** The value was “bioload increases”.

**Q.** For `CC[C@H]1OC(=O)[C@H](C)C(=O)[C@H](C)[C@@H](O[C@@H]2O[C@H](C)C[C@H](N(C)C)[C@H]2O)[C@](C)(OC/C=C/c2cnc3ccccc3c2)C[C@@H](C)C(=O)[C@H](C)[C@H]2NC(=O)O[C@@]21C` [cethromycin], which “MIC90 against B. anthracis, comparator antibiotics” value (B. anthracis [8]) is on record?
**A.** Its value is 0.063 µg/mL (≈ 0.0823 µM).

**Q.** With `O=C(O)c1cn(C2CC2)c2cc(N3CCNCC3)c(F)cc2c1=O` [ciprofloxacin] as the compound, how does the “MIC90 against B. anthracis, comparator antibiotics” value (B. anthracis [8]) read?
**A.** The value was 0.031 µg/mL (≈ 0.0936 µM).
